According to US20260021092A1, “STRUCTURE-BASED DESIGN OF A NOVEL CLASS OF DRUGS FOR NEURODEGENERATIVE DISEASE” (The Regents of the University of California, priority 2022, published 2026):

Assays:
[1] = target: T1, recombinant alpha-synuclein fibrils (Homo sapiens, UniProt P37840); test: Thioflavin T fluorescence of alpha-synuclein fibrils; format: biochemical; details: equimolar 100 μM:100 μM, 48 hours at 37° C. in 1×PBS
T1 construct: made in house; host or cells: E. coli BL21(DE3) Gold
Method: Both compounds were incubated with equimolar ratios of recombinant alpha-synuclein fibrils (100 μM:100 μM) for 48 hours at 37° C. in 1×PBS. After incubation, Thioflavin T (ThT), a fluorescent marker of amyloid fibrils, was added to the samples and ThT fluorescence was measured. EGCG was used as a positive control for comparison. […] Next, transmission electron microscopy (EM) was performed for each sample. […] To obtain a quantitative evaluation of fibril reduction, fibrils were first incubated for 72 hours with compound, then 10 micrographs from random grid points were taken for each sample, and the numbers of fibrils per image were counted (FIG. 5c). […] Western blot analysis, staining for alpha-synuclein, was performed for fibril samples incubated with compounds for 48 hours (FIG. 5d). For untreated alpha-synuclein fibrils, we see a prominent band at 14 kDa corresponding with protein monomer. We also observe a large smear of higher molecular weight alpha-synuclein species, likely corresponding to oligomers or small fibrils, and a dark band at the top of the gel likely from larger fibrils. […] These physical and chemical properties are more predictive of oral bioavailability and central nervous system penetration compared to EGCG, making them more viable candidates for further drug development.
Compounds were incubated quiescently with fibril samples (both recombinant and brain-derived) for 72 hours at 37° C.

[2] = target: T2, recombinant alpha-synuclein fibrils seeding HEK293T cells expressing YFP-fused A53T alpha-synuclein (Homo sapiens, UniProt P37840); test: Alpha-synuclein biosensor cell seeding assay, recombinant fibrils; format: cell-based; design: number of fluorescent puncta (seeded aggregates): dose or concentration left out as unconfirmed; details: for number of fluorescent puncta (seeded aggregates): 48 hours pre-incubation
T2 construct: made in house; host or cells: seed: E. coli BL21(DE3) Gold; reporter: stably transfected HEK293T cells from the Marc Diamond lab
Text: It is thought that alpha-synuclein pathology propagates throughout the brain via a prion-like seeding mechanism^20. Alpha-synuclein aggregates in one cell can fragment and spread to neighboring cells, where they seed the aggregation of soluble protein. Molecules able to disaggregate pre-formed fibrils may be able to interrupt this process. To that end, we assessed if both compounds could mitigate intracellular seeding of αSyn fibrils using alpha-synuclein biosensor cells-HEK293T cells expressing A53T mutant alpha-synuclein fused with yellow fluorescent protein (YFP). At baseline, the fluorescently labeled alpha-synuclein remains soluble within the cell, visible as diffuse fluorescence. However, the liposome-mediated transduction of exogenous αSyn fibrils into the cells induces aggregation of the endogenous protein, and the aggregates can be visualized and quantified as fluorescent puncta within the cell.
HEK293T biosensor cells stably expressing YFP-fused A53T mutant alpha-synuclein, developed and provided by the lab of Marc Diamond at UTSW were used. […] Prior to adding to cells, the coincubated compound/fibril solution was sonicated for 5 minutes in a cuphorn water bath, then mixed for 20 minutes with Lipofectamine 2000 in OptiMEM (1:20 dilution) for 20 minutes. 10 uL of the inhibitor/fibril+Lipofectamine mixture was added to 90 uL of cells plated in black 96-well tissue culture plates in triplicate for each concentration of compound tested. The number of seeded aggregates was quantified using a Celigo Image Cytometer (Nexcelom) in the YFP channel. Images were processed in ImageJ, background fluorescence from unseeded cells was subtracted, and the number of particles per image were counted using the Particle Analyzer function. The quantity of aggregates in each well was normalized to cell confluence. Standard deviation between triplicates and a nonlinear regression curve was used to calculate IC50 values for dose response curves. High quality fluorescent images were obtained using a ZEISS Axio Observer D1 fluorescence microscope in the YFP channel.

[3] = target: T3, MSA brain fibrils seeding HEK293T alpha-synuclein biosensor cells (Homo sapiens, UniProt P37840); test: Alpha-synuclein biosensor cell seeding assay, MSA brain fibrils; format: cell-based; details: sub micromolar concentrations, 48 hours pre-incubation
T3 construct: Extraction of sarkosyl-insoluble alpha-synuclein fibrils from neuropathologically confirmed brain samples of patients diagnosed with MSA; from tissue; host or cells: seed: MSA patient brain; reporter: stably transfected HEK293T cells from the Marc Diamond lab
Method: Next, we tested the efficacy of the compounds to mitigate the intracellular seeding of MSA fibrils in biosensor cells. Brain-derived MSA fibrils robustly seed intracellular alpha-synuclein in HEK293T biosensor cells^21. […] Cells were imaged 48 hours and the number of fluorescent puncta per sample well was quantified.
HEK293T biosensor cells stably expressing YFP-fused A53T mutant alpha-synuclein, developed and provided by the lab of Marc Diamond at UTSW were used. Cells were grown in DMEM (Life Technologies, cat. 11965092) with FBS (10% vol/vol; Life Technologies, cat. A3160401), penicillin/streptomycin (1%; Life Technologies, cat. 15140122), and Glutamax (1%; Life Technologies, cat. 35050061), at 37° C. and 5% CO2 in a humidified incubator. Compounds were incubated with recombinant or patient-derived alpha-synuclein fibrils for 48 hours in OptiMEM media then applied to ˜70% confluent biosensor cells. Prior to adding to cells, the coincubated compound/fibril solution was sonicated for 5 minutes in a cuphorn water bath, then mixed for 20 minutes with Lipofectamine 2000 in OptiMEM (1:20 dilution) for 20 minutes. 10 uL of the inhibitor/fibril+Lipofectamine mixture was added to 90 uL of cells plated in black 96-well tissue culture plates in triplicate for each concentration of compound tested. The number of seeded aggregates was quantified using a Celigo Image Cytometer (Nexcelom) in the YFP channel. Images were processed in ImageJ, background fluorescence from unseeded cells was subtracted, and the number of particles per image were counted using the Particle Analyzer function. The quantity of aggregates in each well was normalized to cell confluence. Standard deviation between triplicates and a nonlinear regression curve was used to calculate IC50 values for dose response curves. High quality fluorescent images were obtained using a ZEISS Axio Observer D1 fluorescence microscope in the YFP channel. […]

[4] = target: T1, recombinant alpha-synuclein fibrils; test: TEM quantification of recombinant alpha-synuclein fibrils; format: biochemical; details: 72 hours with compound, 10 micrographs
Method: Both compounds were incubated with equimolar ratios of recombinant alpha-synuclein fibrils (100 μM:100 μM) for 48 hours at 37° C. in 1×PBS. After incubation, Thioflavin T (ThT), a fluorescent marker of amyloid fibrils, was added to the samples and ThT fluorescence was measured. EGCG was used as a positive control for comparison. […] Next, transmission electron microscopy (EM) was performed for each sample. […] To obtain a quantitative evaluation of fibril reduction, fibrils were first incubated for 72 hours with compound, then 10 micrographs from random grid points were taken for each sample, and the numbers of fibrils per image were counted (FIG. 5c). […] Western blot analysis, staining for alpha-synuclein, was performed for fibril samples incubated with compounds for 48 hours (FIG. 5d). For untreated alpha-synuclein fibrils, we see a prominent band at 14 kDa corresponding with protein monomer. […]
For all transmission electron microscopy (TEM), 6 μL of sample were added onto 400 mesh Formvar Carbon film copper mesh grids (Electron Microscopy Sciences), then incubated for four minutes. […] For quantitation of fibrils, […] TEM images were taken per experimental condition from random points throughout the grid. Fibril counts were manually quantified per image in a blinded fashion. […]

How did the ThT signal [1] turn out when `O=C(O[C@@H]1Cc2c(O)cc(O)cc2O[C@@H]1c1cc(O)c(O)c(O)c1)c1cc(O)c(O)c(O)c1` [EGCG, epigallocatechin gallate] was run?
Its ThT signal is “reduction in ThT signal”.

And the “number of fluorescent puncta (seeded aggregates)” value [2]?
The value was “dose-dependent reduction”.

What about the “intracellular seeding by MSA brain fibrils” value [3] of the same molecule?
The value was “very significant reduction in intracellular seeding”.

With `Cc1cccc(C)c1NC(=O)Cn1nc(Cc2ccccc2)c2ccccc2c1=O` [CNS-11g, 2-(4-benzyl-1-oxophthalazin-2-yl)-N-(2,6-dimethylphenyl)acetamide] as the molecule, how does the ThT signal [1] read?
Its ThT signal is “reduction in ThT signal”.

What about the “number of imaged fibrils per EM image” value [4] of the same molecule?
The value was “reduction in number of imaged fibrils”.

What about the “number of fluorescent puncta (seeded aggregates)” value [2] of the same molecule?
Its value is “dose-dependent reduction in aggregates”.

And the “seeding at low compound concentrations” value [2]?
Its value is “not seen”.

And the “intracellular seeding by MSA brain fibrils” value [3]?
The value was “very significant reduction in intracellular seeding”.

Which results are given for `Cc1cc(C)c(NC(=O)Cn2nc3c4c(cccc4c2=O)-c2ccccc2-3)c(C)c1` [CNS-11, N-mesityl-2-(3-oxoindeno[1,2,3-de]phthalazin-2(3H)-yl)acetamide]?
ThT signal [1]: reduction in ThT signal; number of imaged fibrils per EM image [4]: reduction in number of imaged fibrils; number of fluorescent puncta (seeded aggregates) [2]: dose-dependent reduction in aggregates; seeding at low compound concentrations [2]: initial increase of seeding; intracellular seeding by MSA brain fibrils [3]: very significant reduction in intracellular seeding
